Measurements as given in patent publication US20240173311A1, “METHODS AND COMPOSITIONS FOR MODULATING FGF ACTIVITY” (Recovery Therapeutics, Inc., priority 2021, published 2024).

Key:
HAP1 cells = experiment: Cell survival (XTT) of HAP1 cells in the absence of virus; type: cell-based; conditions: compound 0.002-1 μM, FGF-2 1 ng/ml
Description: (§1) Compound 10 was evaluated for its ability to reduce human coronavirus 229E induced cellular toxicity in HAP1 cells with and without the addition of a low concentration of FGF-2. HAP1 cells were seeded at a density of 1×10^4 cells/well in a volume of 100 μL in DMEM supplemented with 10% FBS. Following a 24-hour incubation at 37° C./5% CO2 the cells were pre-incubated with and without (media only) exogenous FGF-2 (1 ng/ml) and Compound 10 (0.002 μM, 0.008 μM, 0.04 μM, 0.2 μM, or 1 μM; plated in triplicate) for 24 hours prior (D-1) to the addition of human coronavirus 229E at a pre-determined titer. On the day of viral infection (D0), and one and two days thereafter (D1 and D2), freshly prepared FGF-2 and Compound 10 were added. The cultures were incubated for 4 days at 37° C./5% CO2, after which the cells were stained for cell survival with the tetrazolium dye XTT.

human coronavirus 229E = experiment: Anti-coronavirus activity, cell survival (XTT) of infected HAP1 cells; type: cell-based; conditions: in combination with FGF-2 (1 ng/ml), compound 0.002-1 μM, 4 days incubation, FIG. 7
Description: FIG. 7 is a graph showing the cell survival of HAP1 cells infected with human coronavirus 229E following a 4-day incubation period in the presence of Compound 1o. Compound 1o (0.002 μM, 0.008 μM, 0.04 μM, 0.2 μM, or 1 uM) and FGF-2 (1 ng/mL) were added on Day -1, Day 0, Day 1, and Day 2 of infection by human coronavirus 229E.
as §1

[1] = test system: rodent model of stroke recovery (MCAO); experiment: Stroke recovery in vivo after middle cerebral artery occlusion (MCAO); conditions: rat MCAO, 10 mg/kg i.v. on Day 1, 2, 3 after MCAO
Description: Compound 10 was tested for its effectiveness in a rodent model of stroke recovery. Twenty male Sprague Dawley Rats (Charles River Laboratories) each weighing 300-400 g were used in this experiment. First, anesthesia was induced in an induction chamber with 2-3% isoflurane in N2O:O2 (2:1) and maintained with 1-1.5% isoflurane via face mask. Adequate depth of anesthesia was assessed by lack of withdrawal to hindlimb pinch and loss of eyeblink reflex. Once anesthetized, animals received cefazolin sodium (40 mg/kg, i.p.) and buprenorphine SR (0.9-1 mg/kg, s.c.). Cefazolin was used as a prophylactic antibiotic. A veterinary ophthalmic ointment (Sodium Chloride hypertonicity ophthalmic ointment (Muro 128 Sterile Ophthalmic 5% Ointment)) was applied to the eyes. […]
Behavioral evaluations of sensorimotor function were done by investigators blinded to treatment assignment. […] For the forelimb-placing test, the examiner held the rat close to a tabletop and scored the rat's ability to place the forelimb on the tabletop in response to whisker, visual, tactile, or proprioceptive stimulation. Similarly, for the hindlimb placing test, the examiner assessed the rat's ability to place the hindlimb on the tabletop in response to tactile and proprioceptive stimulation. […]

[2] = target: T1, purified FGF-2/FGFR1 complex (Homo sapiens, UniProt P09038+P11362); experiment: Thermal stability assay (TSA) melting curve of the complex (FIG. 1); type: binding; conditions: 25 μM compound, versus complex alone
T1 construct: made in house; host or cells: Escherichia coli BL21 (DE3) Star
Description: FIG. 1 is a graph showing the thermal stability assay (TSA) data of purified FGF-2.FGFR1 complex with and without the addition of Compound 1o (dotted line: without Compound 1o; solid line: 25 μM Compound 1o).
TSA was utilized to biophysically characterize the recombinant human FGFR1/FGF2 complex in the presence or absence of selected compounds of formula (I), Compounds 1, 2a-2f, 20, 5, 60, and 8-13. Compound 1 was prepared according to the procedures described in Example 1, and the other compounds were obtained from commercial sources. The assay functions by protein denaturation over a temperature gradient. […] Changes in the melting temperature of the protein complex in the presence of each compound were monitored and compounds were screened/ranked using this method.
Complex formation was verified by loading the complexed material on a size exclusion column (superdex 10 300GL S200) and observing the monodisperse peak corresponding to the FGF2/FGFR1 complex (˜ 40 kDa). […] The samples were processed using a Bio-Rad CFX C96 Touch quantitative polymerase chain reaction and run using the FRET assay settings with a heating ramp of 0.3° C./s cycling from 4 to 100° C. Data analysis was performed using the Bio-Rad CFX Manager Software (version 3.1, Bio-Rad) and changes in the melting temperature (Tm) of the complex in the presence of each compound were monitored. […]

FGFR1 = FGFR1 (Homo sapiens, UniProt P11362); experiment: Phosphorylation of FGFR1 in a cell-based system; conditions: cells expressing FGFR1, increasing concentrations, submaximal concentration of FGF-2, FIG. 2
Description: FIG. 2 is a graph showing the phosphorylation of FGFR1 in the presence of increasing concentrations of Compound 1o in a cell-based system.
Cells expressing FGFR1 were exposed to increasing concentrations of Compound 10 in the presence of a submaximal concentration of FGF-2. Cells were then lysed, and the relative phosphorylation of FGFR1 was assessed using antibodies to non-phosphorylated and phosphorylated FGFR1. The results are shown in FIG. 2, which is a graph showing the phosphorylation of FGFR1 in the presence of increasing concentrations of Compound 10.

T1 sequence (P11362 142-365 limits assumed): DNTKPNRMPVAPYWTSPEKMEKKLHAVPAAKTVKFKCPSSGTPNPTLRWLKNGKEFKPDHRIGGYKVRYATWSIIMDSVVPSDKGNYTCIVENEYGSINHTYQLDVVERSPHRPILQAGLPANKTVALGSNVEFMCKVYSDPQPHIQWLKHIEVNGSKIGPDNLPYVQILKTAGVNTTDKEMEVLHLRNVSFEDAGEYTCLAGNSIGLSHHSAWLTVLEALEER
T1 sequence (P09038 156-288 limits assumed): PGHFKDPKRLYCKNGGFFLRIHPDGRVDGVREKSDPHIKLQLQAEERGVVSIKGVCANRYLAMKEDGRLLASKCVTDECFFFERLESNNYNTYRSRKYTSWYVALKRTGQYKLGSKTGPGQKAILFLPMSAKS
Sequence of FGFR1 (P11362 22-822, species assumed): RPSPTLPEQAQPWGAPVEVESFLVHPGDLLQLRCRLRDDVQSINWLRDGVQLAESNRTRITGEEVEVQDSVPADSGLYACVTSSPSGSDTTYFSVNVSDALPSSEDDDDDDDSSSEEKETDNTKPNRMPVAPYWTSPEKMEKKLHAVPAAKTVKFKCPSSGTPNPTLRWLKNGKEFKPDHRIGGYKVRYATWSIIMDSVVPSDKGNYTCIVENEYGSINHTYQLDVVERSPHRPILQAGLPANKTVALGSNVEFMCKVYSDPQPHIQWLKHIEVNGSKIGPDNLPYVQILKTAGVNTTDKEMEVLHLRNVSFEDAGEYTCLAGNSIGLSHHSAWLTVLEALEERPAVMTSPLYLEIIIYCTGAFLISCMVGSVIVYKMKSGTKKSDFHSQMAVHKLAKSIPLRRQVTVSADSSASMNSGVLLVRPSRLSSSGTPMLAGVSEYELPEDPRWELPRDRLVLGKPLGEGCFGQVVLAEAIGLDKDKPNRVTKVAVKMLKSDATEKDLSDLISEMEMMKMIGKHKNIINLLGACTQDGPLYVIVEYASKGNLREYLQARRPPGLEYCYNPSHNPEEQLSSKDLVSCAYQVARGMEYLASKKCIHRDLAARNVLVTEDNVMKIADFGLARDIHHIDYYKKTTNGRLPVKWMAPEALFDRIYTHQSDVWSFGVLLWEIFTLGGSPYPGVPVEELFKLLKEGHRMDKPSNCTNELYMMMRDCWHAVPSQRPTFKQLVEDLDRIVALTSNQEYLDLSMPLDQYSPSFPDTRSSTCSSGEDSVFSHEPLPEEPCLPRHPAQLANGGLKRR
Sequence of FGFR1 (P09038 143-288 partner, species assumed): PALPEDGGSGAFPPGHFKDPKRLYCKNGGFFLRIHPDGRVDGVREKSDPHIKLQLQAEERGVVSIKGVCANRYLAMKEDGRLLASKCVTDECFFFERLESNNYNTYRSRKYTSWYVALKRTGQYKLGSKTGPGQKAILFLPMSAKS

Which “cell survival in the absence of the virus” value (HAP1 cells) does the source give for `CCN(CC)c1ccc(C=O)cc1` [Compound 10, 4-diethylaminobenzaldehyde] here?
Its value is “no effect on cell survival”.

What about the “cell survival of HAP1 cells infected with human coronavirus 229E” value (human coronavirus 229E) of the same molecule?
Its value is “increases cell survival”.

And the “rise in body weight following surgery” value [1]?
The value was “not affected”.

What about the “sensorimotor recovery (forelimb placing, hindlimb placing, body swing tests)” value ([1]; up to Day 21, versus vehicle, p<0.001 two-way repeated-measures ANOVA) of the same molecule?
The value was “clear and significant augmentation of sensorimotor recovery”.

And the “shift of the TSA melting curve / stability of the complex” value [2]?
Its value is “increased stability of the complex”.

And the “relative phosphorylation of FGFR1” value (FGFR1)?
Its value is “augmented the effects of FGF-2”.
